Patent US20240118281A1, “ANTICANCER COMPOUNDS AND USES THEREOF” (University of Florida Research Foundation, Incorporated, priority 2021, published 2024)
Each block holds one compound with its values, some of them ahead of it.

How the values were obtained:
PDIA1 [1] = target: T1, PDIA1 (Homo sapiens, UniProt P07237); assay: Biotin-PyrDTDO/Streptavidin-agarose pulldown from treated cells; assay type: cell-based; set-up: endogenous in cells; host or cells: MDA-MB-468, BT474, T47D; settings: for PDIA1 in Streptavidin-Agarose pulldown: 100 μM, 16 h
T1 sequence (P07237 18-508): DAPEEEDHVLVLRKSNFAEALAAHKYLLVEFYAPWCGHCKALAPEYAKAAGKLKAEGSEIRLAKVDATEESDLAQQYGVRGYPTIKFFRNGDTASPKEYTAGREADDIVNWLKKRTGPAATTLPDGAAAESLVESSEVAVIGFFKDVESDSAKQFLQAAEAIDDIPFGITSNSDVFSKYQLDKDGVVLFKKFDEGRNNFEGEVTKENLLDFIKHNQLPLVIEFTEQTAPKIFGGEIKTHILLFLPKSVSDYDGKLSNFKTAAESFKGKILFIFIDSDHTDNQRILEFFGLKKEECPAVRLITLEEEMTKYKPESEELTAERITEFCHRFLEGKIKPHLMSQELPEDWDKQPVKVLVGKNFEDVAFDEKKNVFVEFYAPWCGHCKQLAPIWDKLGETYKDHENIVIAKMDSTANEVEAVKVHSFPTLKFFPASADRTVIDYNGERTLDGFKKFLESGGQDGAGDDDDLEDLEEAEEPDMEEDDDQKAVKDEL
Procedure: (§1) Cells were treated with Biotin-PyrDTDO with or without the pan-Caspase inhibitor Q-VD-OPH (MedChemExpress, Monmouth Junction, NJ) for 16 h in 10% FBS-DMEM, followed by the addition of 25 mM N-ethylmaleimide (NEM) (Thermo Scientific, Rockford, IL) for 20 min at 37° C. Cells were subsequently scraped directly into the media, washed twice with ice-cold PBS, and pelleted by centrifugation. Cells were extracted in buffer (20 mM HEPES (pH 7.4), 1 mM EDTA, 1mM EGTA, 5% Glycerol, 1 nM Microcystin, 1 mM Na3VO4, and 40 mM Na2H2P2O7) containing 1% Triton X-100. Samples were sonicated, followed by centrifugation for 20 min at 4° C. The supernatant was pre-cleared with Sepharose CL-6B (Amersham Biosciences AP, Uppsala, Sweden) for 2 h at 4° C. Pre-cleared samples were then incubated with Streptavidin (SA)-Agarose (Thermo Scientific, Rockford IL) and mixed on a Nutator for 24 h at 4° C. SA-Agarose was washed three times with extraction buffer containing 0.1% Triton X-100, followed by the addition of 2×-SDS Sample buffer containing 2 mM biotin. Samples were analyzed by immunoblot, silver stain, or probing with Streptavidin-Alkaline Phosphatase.

ERp44 [2] = target: T2, ERp44 (Homo sapiens, UniProt Q9BS26); assay: as above; assay type: cell-based; set-up: endogenous in cells; host or cells: MDA-MB-468, BT474, T47D; settings: for ERp44 in Streptavidin-Agarose pulldown: 100 μM, 16 h
T2 sequence (Q9BS26 30-406): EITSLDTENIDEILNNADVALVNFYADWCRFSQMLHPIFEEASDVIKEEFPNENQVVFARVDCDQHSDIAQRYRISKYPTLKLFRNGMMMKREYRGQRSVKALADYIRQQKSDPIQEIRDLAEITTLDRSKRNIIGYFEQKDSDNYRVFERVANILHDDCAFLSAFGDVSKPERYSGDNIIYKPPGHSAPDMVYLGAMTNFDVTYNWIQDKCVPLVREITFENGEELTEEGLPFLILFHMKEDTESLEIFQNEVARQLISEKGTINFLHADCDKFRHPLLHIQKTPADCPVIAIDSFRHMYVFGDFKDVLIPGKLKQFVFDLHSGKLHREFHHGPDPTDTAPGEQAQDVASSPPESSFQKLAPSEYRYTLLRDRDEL
Procedure: as §1

PDIA1 [3] = target: T1, PDIA1; assay: In vitro binding assay with recombinant purified PDIA1; settings: FIG. 3D
Procedure: (§2) Purified His6-AGR2 or His6-AGR2 C81S, as prepared above, or His6-AGR2 (PRO-580) or His6-AGR3 (PRO-242) obtained from ProSpec (New Brunswick NJ) were incubated with or without varying concentrations of the unlabeled DDA competitors, tcyDTDO or dMtcyDTDO, and 30 μM Biotin-GlyPyrDTDO or Biotin-PyrDTDO in buffer (20 mM HEPES (pH 7.4), 1 mM EDTA, 1 mM EGTA, 5% Glycerol, 1 nM Microcystin, 1 mM Na3VO4, and 40 mM Na2H2P2O7) containing 1% Triton-X 100 for 30 min at 37° C. […] Therefore, the two probes were used interchangeably. Reactions were stopped by boiling the samples in 2×-SDS-Sample Buffer containing 100 mM NEM for 10 min. Biotin-DDA labeling of protein was verified by blotting with Streptavidin-Alkaline Phosphatase (Rockland Immunochemicals, Inc., Limerick, PA). ERp44 (PRO-547) and PDIA1 (ENZ-262) were obtained from ProSpec and used in experiments examining the binding of these proteins to Biotin-PyrDTDO.

AGR2 [4] = target: T3, AGR2 (Homo sapiens, UniProt O95994); assay: Biotin-PyrDTDO/Streptavidin-agarose pulldown from treated cells; assay type: cell-based; set-up: expressed in transfected cells; settings: T47D and BT474 cells, 100 μM, 16 h, FIG. 3C left
T3 sequence (O95994 21-175): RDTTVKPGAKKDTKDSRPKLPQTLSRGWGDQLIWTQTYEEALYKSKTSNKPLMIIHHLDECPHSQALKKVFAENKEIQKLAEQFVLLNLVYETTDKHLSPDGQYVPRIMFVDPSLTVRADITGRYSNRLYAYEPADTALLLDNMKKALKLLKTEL
Procedure: as §1

[5] = system: proteins in intact cells and purified proteins in vitro; assay: Preliminary studies of biotinylated DDA protein labeling
Procedure: as §2

ERp57 = target: T4, ERp57 (Homo sapiens, UniProt P30101); assay: Biotin-PyrDTDO/Streptavidin-agarose pulldown from treated cells; assay type: cell-based; settings: FIG. 10A
T4 construct: endogenous in cells
T4 sequence (P30101 25-505): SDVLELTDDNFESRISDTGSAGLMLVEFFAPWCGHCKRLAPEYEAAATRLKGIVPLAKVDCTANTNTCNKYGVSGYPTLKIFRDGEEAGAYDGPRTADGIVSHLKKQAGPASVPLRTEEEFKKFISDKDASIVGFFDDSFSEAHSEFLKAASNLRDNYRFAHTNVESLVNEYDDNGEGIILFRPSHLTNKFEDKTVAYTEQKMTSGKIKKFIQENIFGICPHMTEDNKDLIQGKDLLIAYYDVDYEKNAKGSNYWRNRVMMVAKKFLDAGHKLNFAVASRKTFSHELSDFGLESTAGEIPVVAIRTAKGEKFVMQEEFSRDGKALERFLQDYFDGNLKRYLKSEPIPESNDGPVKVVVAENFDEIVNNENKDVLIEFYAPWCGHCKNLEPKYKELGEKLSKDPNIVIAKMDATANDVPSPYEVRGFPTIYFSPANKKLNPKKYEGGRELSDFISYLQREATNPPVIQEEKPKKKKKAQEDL
Procedure: as §1

ERp5 = target: T5, ERp5 (Homo sapiens, UniProt Q15084); assay: as above; assay type: cell-based; settings: FIG. 10A
T5 construct: endogenous in cells
T5 sequence (Q15084 20-440): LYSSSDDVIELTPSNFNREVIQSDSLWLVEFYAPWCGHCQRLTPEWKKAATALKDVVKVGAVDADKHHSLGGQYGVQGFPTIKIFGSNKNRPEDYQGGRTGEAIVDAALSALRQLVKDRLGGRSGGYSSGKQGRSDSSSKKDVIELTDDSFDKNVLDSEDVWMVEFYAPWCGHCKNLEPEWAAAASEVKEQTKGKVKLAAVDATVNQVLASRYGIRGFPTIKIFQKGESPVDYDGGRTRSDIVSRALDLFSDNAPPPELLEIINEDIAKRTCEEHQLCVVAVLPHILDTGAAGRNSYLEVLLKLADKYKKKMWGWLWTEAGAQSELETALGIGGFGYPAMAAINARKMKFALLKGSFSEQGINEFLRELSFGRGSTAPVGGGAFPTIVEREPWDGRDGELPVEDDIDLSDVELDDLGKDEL
Procedure: as §1

ERp44 [6] = target: T2, ERp44; assay: In vitro binding assay with recombinant purified ERp44; settings: FIG. 3D
Procedure: as §2

[7] = system: MDA-MB-468 and BT474 cells; assay: Immunoblot analysis of treated cells (FIG. 9D); assay type: cell-based; settings: 24 h
From the text: The BT20, BT474, BT549, MCF7, MDA-MB-231, MDA-MB-436, MDA-MB-468, HCC1143, HCC1500, HCC1569, HCC1937, HCC1954, Hs578t, and T47D cells lines were purchased from American Type Culture Collection (ATCC) (Manassas, VA). The HCI-001 cell line was derived from an ER-/PR-/HER2- patient-derived xenograft originally isolated from a patient as described previously (DeRose Y S, et al. Nat Med 2011; 17: 1514-1520). The HCI-001/LVM2 model was derived from the HCI-001 cell line by performing two rounds of selection for liver metastasis, as described previously (Wang M, et al. Cell Death Discovery 2019; 5: 153). Cell lines were grown in Dulbecco's Modified Eagle's Medium (GE Healthcare Life Sciences, Logan, UT) containing 10% fetal bovine serum (10% FBS—DMEM) in a humidified incubator with 5% CO2 at 37° C. Cell lysates were prepared as described previously (Law B K, et al. Mol Cell Biol. 2002; 22: 8184-8198). […]

AGR2 [8] = target: T3, AGR2; assay: DDA-AGR2 binding assay, Streptavidin-Alkaline Phosphatase blot; set-up: made in house; host or cells: E. coli BL21(DE3), pET-45b(+); settings: 37° C., non-reducing SDS-PAGE, FIG. 2B
Procedure: Competent BL21(DE3) cells were transformed with either the AGR2/pET-45b(+) or AGR2 C81S/pET-45b(+) vectors. Protein expression was induced by the addition of 50 µM Isopropyl β-D-1-thiogalactopyranoside (Fisher Scientific, Fair Lawn, NJ) to bacterial cell cultures for 2.5 hours and shaking at 37° C. Bacterial cells were subsequently pelleted and dissolved in Mouse Tonicity Phosphate Buffered Saline (MTPBS) containing 1% Triton X-100 and sonicated for 20 seconds on ice, followed by centrifugation for 10 min at 4° C. to pellet cell debris. The supernatant was transferred to a new tube, followed by the addition of TALON Resin (Clontech, Mountain View, CA) and mixing on a Nutator for 30 min at 4° C. The TALON Resin was pelleted by centrifugation and washed twice with MTPBS and twice with MTPBS containing 30 mM Imidazole. Protein bound to the TALON Resin was eluted with 400 mM Imidazole and precipitated with 60% saturated ammonium sulfate. The precipitated protein was pelleted by centrifugation, dissolved in MTPBS containing 1 mM DTT and 1 mM EDTA, and subsequently dialyzed against a solution of MTPBS containing 10 μM DTT and 30% Glycerol.
as §2

AGR3 = target: T6, AGR3 (Homo sapiens, UniProt Q8TD06); assay: DDA binding assay with AGR3; settings: FIG. 2D
T6 construct: His6 (N); purchased ProSpec PRO-242
T6 sequence (Q8TD06 22-166): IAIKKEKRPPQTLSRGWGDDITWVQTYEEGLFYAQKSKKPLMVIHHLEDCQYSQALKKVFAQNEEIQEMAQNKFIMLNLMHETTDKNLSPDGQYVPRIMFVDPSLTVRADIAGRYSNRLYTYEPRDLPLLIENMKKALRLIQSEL
Procedure: as §2

C81S AGR2 mutant = target: T7, C81S AGR2 mutant (Homo sapiens, UniProt O95994, C81S); assay: DDA-AGR2 binding assay, C81S mutant; settings: FIG. 2D
T7 construct: made in house; host or cells: E. coli BL21(DE3), pET-45b(+)
T7 sequence (O95994 21-175 C81S): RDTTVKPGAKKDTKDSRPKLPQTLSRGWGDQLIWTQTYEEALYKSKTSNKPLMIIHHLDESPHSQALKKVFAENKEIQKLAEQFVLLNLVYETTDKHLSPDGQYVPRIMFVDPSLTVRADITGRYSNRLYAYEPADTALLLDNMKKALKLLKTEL
Procedure: Total RNA from BT474 cells was extracted with TRIzol Reagent (Invitrogen, Waltham, MA) according to the manufacturer's protocol. Total cellular RNA was used to synthesize first-strand cDNA by using the PCR conditions listed: 25° C. for 10 min, 42° C. for 30 min, and 95° C. for 5 min. PCR was subsequently performed using the following AGR2 primers: 5′-[…]-3′ and 5′-[…]-3′. The PCR fragment encoding AGR2 was subsequently digested with BamHI and SnaBI and cloned into the 5′ BamHI and 3′ SnaBI sites of pMXs-IRES-Blasticidin. The AGR2/pMXs-IRES-Blasticidin vector was used as a template for PCR reactions using the following AGR2 primers to amplify the DNA sequence downstream of the AGR2 signal sequence and to add 5′-BamHI and 3′-SalI sites: 5′-[…]-3′ and 5′-[…]-3′. The PCR fragment was digested with BamHI and SalI and cloned into the 5′ BamHI and 3′ SalI sites of pET-45b(+) (Novagen Burlington, MA). QuikChange mutagenesis was performed to produce the C81S mutation of AGR2 using the follow primers: 5′- […]-3′ and 5′-[…]-3′. The C81S mutation of AGR2 was verified by sequencing.
Competent BL21(DE3) cells were transformed with either the AGR2/pET-45b(+) or AGR2 C81S/pET-45b(+) vectors. Protein expression was induced by the addition of 50 µM Isopropyl β-D-1-thiogalactopyranoside (Fisher Scientific, Fair Lawn, NJ) to bacterial cell cultures for 2.5 hours and shaking at 37° C. […]

[9] = system: HCI-001/LVM2 breast tumors and associated liver metastases; assay: HCI-001/LVM2 breast tumor liver metastasis study, H&E staining of livers; assay type: in vivo, mice; settings: 20 mg/kg oral gavage once daily, four consecutive days; necrosis not observed in vehicle treated tumors
Procedure: Breast cancer liver metastasis was initiated in NOD-SCID-gamma (NSG) mice obtained from Jackson Laboratories (Bar Harbor, ME) by injecting 1×10^6 cancer cells into the #4 mammary fat pads as described previously (Wang M, et al. Cell Death Discovery 2019; 5: 153). Mice bearing HCI-001/LVM2 breast tumors were treated once daily for four consecutive days with 20 mg/kg tcyDTDO by oral gavage and livers were collected. Animals bearing HER2+ BT474 tumors were treated with the vehicle or 20 mg/kg dMtcyDTDO or dFtcyDTDO by intraperitoneal injection for four consecutive days. Tissue samples fixed in 4% paraformaldehyde/PBS and paraffin-embedded were sectioned and stained with hematoxylin and eosin (H&E) by the University of Florida Molecular Pathology Core (https://molecular.pathology.ufl.edu/).

[10] = MDA-MB-468 cells, FIG. 3C right
[11] = T47D and BT474 cells, FIG. 3C left

PDIA1 in additional pulldown experiments (PDIA1 [1]; FIG. 10A): detected | PDIA1 in Streptavidin-Agarose pulldown (PDIA1 [1]; [10]): affinity purified ERp44 and PDIA1 | PDIA1 in Streptavidin-Agarose pulldown (PDIA1 [1]; [11]): isolated | ERp44 in additional pulldown experiments (ERp44 [2]; FIG. 10A): detected | ERp44 in Streptavidin-Agarose pulldown (ERp44 [2]; [10]): affinity purified ERp44 and PDIA1 | ERp44 in Streptavidin-Agarose pulldown (ERp44 [2]; [11]): isolated | Labeling of PDIA1 by biotinylated DDA (PDIA1 [3]): labeled ERp44 and PDIA1 | AGR2 in Streptavidin-Agarose pulldown (AGR2 [4]): isolated | ERp57 in additional pulldown experiments (ERp57): ERp57 and ERp5 were not | ERp5 in additional pulldown experiments (ERp5): ERp57 and ERp5 were not | Labeling of ERp44 by biotinylated DDA (ERp44 [6]): labeled ERp44 and PDIA1
Compound: O=C1N[C@H]2[C@H](CS[C@H]2CCCCC(=O)N2C[C@@H]3CS(=O)(=O)SC[C@H]3C2)N1 (mixture of isomers) [Biotin-PyrDTDO, (3aS,4S,6aR)-4-(5-((4aR,7aR) and (4aS,7aS)-2,2-dioxidotetrahydro-1H-[1,2]dithiino[4,5-c]pyrrol-6(4H)-yl)-5-oxopentyptetrahydro-1H-thieno[3,4-d]imidazol-2(3H)-one]
Labeling of proteins, comparison of the two biotinylated probes [5]: indistinguishable labeling of proteins in intact cells and purified proteins in vitro

Compound: CC(C)(C)OC(=O)N1C[C@@H]2CS(=O)(=O)SC[C@H]2C1 (racemic) [(±)-BocPyrDTDO, tert-Butyl-(4aS,7aS)- and (4aR,7aR)-tetrahydro-1H-[1,2]dithiino[4,5-e]pyrrole-6(4H)-carboxylate 2,2-dioxide]
Biological activity and potency compared with DTDO [7]: biologically active and showed a potency similar to DTDO

Labeling of C81S AGR2 mutant by biotinylated DDA (C81S AGR2 mutant): not labeled
Compound: O=C(CCCC[C@@H]1SC[C@@H]2NC(=O)N[C@@H]21)NCC(=O)N1C[C@@H]2CS(=O)(=O)SC[C@H]2C1 (racemic) [Biotin-GlyPyrDTDO, N-(2-((4aS,7aS)- and (4aR,7aR)-2,2-Dioxidotetrahydro-1H-[1,2]dithiino[4,5-c]pyrrol-6(4H)-yl)-2-oxoethyl)-5-((3aS,4S,6aR)-2-oxohexahydro-1H-thieno[3,4-d]imidazol-4-yl)pentanamide]
Labeling of AGR2 by biotinylated DDA (AGR2 [8]): labeled AGR2 in a concentration-dependent manner | Labeling of AGR3 by biotinylated DDA (AGR3): also labeled | Labeling of proteins, comparison of the two biotinylated probes [5]: indistinguishable labeling of proteins in intact cells and purified proteins in vitro

Compound: O=S1(=O)CC2CCCCC2CS1 (stereo not drawn) [tcyDTDO]
Liver metastases, H&E histology [9]: exhibited central necrosis
